Experiments:
cortisol response [1] = conditions: 800 mg, cited from earlier work
cortisol response [2] = conditions: cited from earlier work
older males = experiment: Effect of PS supplementation on serum and free testosterone of older males with exercise regimens; assay type: in vivo, human
Experimental: A. subject three, a physically active non smoking […] who took no prescription drugs or alcohol was the first subject. Starting on Day 1, the person consumed 600 mg of Phosphatidylserine (Chemi Nutra, Inc., White Bear Lake, Minn.) for 11 days accompanied by the following cardio and resistance workouts: • Day 1: lifted weights for 1.5 hours and intense cardio exercise, 12 minutes. • Day 2: intense cardio exercise for 28 minutes. • Day 3: easy pace walk, 1.5 mile. • Day 4: intense cardio exercise for 35 minutes. • Day 5: easy pace walk, 2 miles. • Day 6: lifted weights for 1.5 hours. • Days 7 and 8: rest, no exercise. • Day 9 intense cardio exercise, 35 minutes and 12 miles easy pace walk • Day 10: lifted weights 1.5 hours. Blood was drawn at 8:00 am on the first and eleventh day of the study and analyzed for serum and free testosterone by Life Extension National Diagnostics, Inc., Ft. Lauderdale, Fla. Serum testosterone rose from 575 nanograms per decilitier to 665 nanograms per deciliter, a 16% increase. B. The second subject (RJ) is a person. Starting on day 1, RJ consumed 400 mg PS daily for 11 days, accompanied by the following exercise regimens: • Day 2: bicycle ergometer for 30 minutes and elliptical trainer for 30 minutes. • Day 3: tennis singles match for 1.5 hours. • Day 4: treadmill 15 minutes and upper body resistance exercise for 1 hour. • Day 5: elliptical trainer for 45 minutes and resistance exercise for 30 minutes. • Day 6: rest. • Day 7: treadmill for 30 minutes; elliptical trainer for 30 minutes; resistance exercise for 30 minutes. • Day 8: rest. • Day 9: resistance exercise 1.5 hours. • Day 10 elliptical trainer for 1 hour. • Day 11: upper body resistance exercise for 30 minutes. Serum testosterone levels and free testosterone levels were measured on days 1 and 12. Serum testosterone increased from 290 nanograms/deciliter to 437 nanograms/deciliter, an increase of 51%. Free testosterone increased from 11.4 picograms/ml to 18.0 picograms/ml, an increase of 58%. C. The third subject is person one. The person consumed 300 mg PS (Chemi Nutra) daily for 11 days accompanied by a cardio and resistance training workout on days 2-11: • Day 2: 9 miles cycling for 35 minutes; 4 miles running for 40 minutes; 9 miles cycling for 40 minutes. • Day 3: tennis singles match for 1.5 hours. • Day 4: 9 miles cycling for 45 minutes; whole body resistance training for 1 hour; 9 miles cycling for 50 minutes. • Day 5: 9 miles cycling for 30 minutes; 5 miles running for 45 minutes; 9 miles cycling for 30 minutes • Day 6: rest. • Day 7: rest. • Day 8: resistance training 1.5 hours. • Day 9: 9 miles cycling for 50 minutes; upper body resistance exercise 1 hour; 9 miles cycling for 50 minutes. • Day 10: high-intensity resistance training for 30 minutes. • Day 11: 5 miles running for 50 minutes. Serum testosterone levels and free testosterone levels were measured on days 1 and 12. Serum testosterone increased from 734 nanograms/deciliter to 781 nanograms/deciliter, an increase of 6.4%. Free testosterone increased from 22.1 picograms/ml to 27.0 picograms/ml, an increase of 22%.

healthy male subjects = experiment: Plasma testosterone response to moderate intensity cycle ergometer exercise after 10 days of oral PS or placebo (double-blind crossover); assay type: in vivo, human
Experimental: The purpose of the current study was to investigate the efficacy of short-term S-PS supplementation, at dosage levels less than the currently established dose, on testosterone response to acute moderate-intensity exercise. This study aimed to examine the influence of short-term supplementation with a moderate dose of PS (600 mg per day) on plasma concentrations of testosterone before, during, and following moderate intensity exercise in healthy males. 10 healthy male subjects participated in the study. Each subject was assigned to ingest 600 mg PS or placebo per day for 10 days using a double-blind, placebo-controlled, crossover design. Serial venous blood samples were taken at rest, after a 15 minute moderate intensity exercise protocol on a cycle ergometer that consisted of five 3-minute incremental stages beginning at 65% and ending at 85% VO2max, and during a 65 minute passive recovery. Plasma samples were assessed for testosterone for treatment (PS or placebo). PS increased AUC for testosterone to cortisol ratio (184±5%) when compared to placebo (p<0.05).
Subjects. Ten healthy males participated in this study. All subjects in this investigation participated in a familiarization session. During the familiarization session, subjects were informed as to the experimental procedures, completed a personal/medical history form, and signed informed consent statements in adherence with the human subject's guidelines of the American College of Sports Medicine. No subject in this trial was a vegetarian with all subjects reportedly consuming meat in their daily diet.
Each participant completed three testing sessions during the 21-day study. Participants performed a graded exercise test (starting at 50 W, increasing by 50 W increments every 2 minutes) on a cycle ergometer (Gary Fisher Tarpon OS Series Mountain Bike connected to a Computrainer Pro model 8002 RacerMate EBRA™ Approved System with software version 1.1.59) to assess maximal oxygen consumption (VO2max), and were scheduled for testing sessions 2 and 3 (day 11 and day 21). VO2max was determined using a Sensormedic V229 Metabolic System that was calibrated following the recommended technical guidelines (Sensormedics Corporation, Yorba Linda, Calif.). Upon completion of the VO2max test the participants were randomly assigned to one of two groups and received a 10-day supply of either the placebo or PS (600 mg per day of soy-derived PS).
The second and third exercise sessions were performed to determine testosterone responses to exercise induced stress at rest, during exercise, and recovery. On the tenth day of supplementation the participants ingested the last dose of the assigned substance (PS or placebo) and reported to the laboratory at 7 am after an overnight fast. Venous blood samples were taken on arrival (−30) and 30 minutes later, which was just prior to the start of exercise (0). Following the 30 minute rest period, the participants were asked to begin exercising on the cycle ergometer at an exercise intensity calculated to elicit 65% of VO2max. The intensity of exercise was increased automatically by 5% every 3-minute increment until the intensity was at 85% of VO2max (five-three minute stages). After cycling for a total of 15 minutes, the subject stopped exercising and a post-exercise venous blood sample was taken immediately. […]

[3] = subject one, 300 mg daily for 11 days
[4] = subject two, 400 mg daily for 11 days

For phosphatidylserine [PS], the “reduction of cortisol response to intensive resistance training” value (cortisol response [1]) is given as 20%, the “effect on testosterone levels” value (cortisol response [1]; intensive resistance training) is given as “no effect” and the “cortisol response compared to placebo” value (cortisol response [2]; 400 mg) is given as “no significant result”. The “lowering of cortisol response” value (cortisol response [2]; 800 mg supplementation) was 30%, the “increase of free testosterone” value (older males; [3]) was 22% and the “increase of serum testosterone” value (older males; [3]) was 6.4%. The “free testosterone after treatment” value (older males; subject one, 300 mg daily for 11 days, day 12, day 1 22.1) was 27.0 picograms/ml, the “serum testosterone after treatment” value (older males; subject one, 300 mg daily for 11 days, day 12, day 1 734) was 781 nanograms/deciliter and the “increase of serum testosterone” value (older males; subject three, 600 mg for 11 days) was 16%. For the same substance, the “serum testosterone after treatment” value (older males; subject three, 600 mg for 11 days, eleventh day, first day 575) was 665 nanograms per deciliter, the “increase of free testosterone” value (older males; [4]) was 58% and the “increase of serum testosterone” value (older males; [4]) was 51%. For the same substance, the “free testosterone after treatment” value (older males; subject two, 400 mg daily for 11 days, day 12, day 1 11.4) was 18.0 picograms/ml, the “serum testosterone after treatment” value (older males; subject two, 400 mg daily for 11 days, day 12, day 1 290) was 437 nanograms/deciliter and the “increase of AUC for testosterone to cortisol ratio compared to placebo” value (healthy male subjects; 600 mg PS per day oral for 10 days, 10 healthy males, p<0.05) was 184±5%. The “increase of plasma testosterone concentrations compared with placebo” value (healthy male subjects; 600 mg/day S-PS for 10 days) was 51±6%, the “plasma testosterone levels at the beginning of the exercise compared to placebo” value (healthy male subjects; 600 mg/day S-PS for 10 days) was “higher plasma testosterone levels” and the “increase of testosterone area under the curve versus placebo” value (healthy male subjects; 600 mg/day S-PS for 10 days, FIG. 2, p=0.02) was 37±5%. For the same substance, the “mean peak concentration of testosterone” value (healthy male subjects; 600 mg/day S-PS for 10 days, plasma, placebo 5.5±0.3, P (treatment) 0.13) was 8.3 ± 1.7 ng/mL.

— US8124594B2, “Methods using phosphatidylserine, lysophosphatidylserine, and/or salts thereof to increase testosterone levels” (Chemi Nutra, LLC, priority 2007, dated 2012)
